Earlier results in patent US5567683A, “Substituted lactose and lactosamine derivatives as cell adhesion inhibitors” (Glycomed Incorporated, priority 1994, dated 1996).

Tested on: mammalian hepatocytes
Conditions: effect of valency and spacing of lactose moieties; read-out: IC50 for inhibition of labeled ASOR binding to mammalian hepatocytes

OC[C@H]1O[C@@H](O[C@H]2[C@H](O)[C@@H](O)C(O)O[C@@H]2CO)[C@H](O)[C@@H](O)[C@H]1O (stereo partly shown) [monovalent lactose, lactose]
IC50: 500 µM
